{
  "source": "patent US12060350B2",
  "about": "“Therapeutic compounds and methods of use thereof” (REGENTS OF THE UNIVERSITY OF MINNESOTA, priority 2018, dated 2024)",
  "test_system": "human whole blood",
  "test": "IFN-α/β, IFN-γ, and TNF-α/IL-1β whole blood reporter gene assays (cytokine release)",
  "format": "cell-based",
  "details": "FIG. 4",
  "procedure": "IFN-α/β, IFN-γ, and TNF-α/IL-1β Whole Blood Reporter Gene Assays. Whole heparinized blood is collected from consenting individuals, as approved by the University of Minnesota Institutional Review Board, and is diluted 1:2 in RPMI supplemented with 10% fetal bovine serum (FBS). Forty microliters is added to 384-well, flat-bottomed, cell culture-treated microtiter plates containing serial dilutions of compounds. Following incubation at 37° C. for 24 h, […] of supernatant is transferred to separate 384-well plates using a liquid handler equipped with liquid level sensing in order to avoid disturbing the erythrocyte-rich pellet. Forty microliters of HEK-IFNα/β, HEK-IFNγ, or HEK-TNFα/IL-β cytokine reporter cells (InvivoGen, San Diego, CA) harvested at a density of 1×10^6 cells/mL in DMEM with 10% FBS is added to the supernatant plates and incubated at 37° C. for 24 h. […] Sigmoidal dose-response profiles for each cytokine are observed (Beesu M. et al. J. Med. Chem. 2017, 2084), from which threshold cytokine concentrations corresponding to maximal responses for each cytokine reporter cell line are recorded. […]",
  "data": [
    {"smiles": "CCCCc1nc2c(N)nc3ccccc3c2n1Cc1cc(C)c(O)c(CN)c1", "note": "[Compound 29, 4-((4-Amino-2-butyl-1H-imidazo[4,5-c]quinolin-1-yl)methyl)-2-(aminomethyl)-6-methylphenol]", "values": [
      {"measurement": "cytokine release in human whole blood", "result": "can induce cytokine release strongly"}
    ]}
  ]
}
